{
  "source": "patent US20020026053A1",
  "about": "“Novel 3-(substituted) -2- indolinones compounds and use thereof as inhibitors of protein kinase activity” (priority 1997, published 2002)",
  "data": [
    {"molecular_target": "T1, EGFR (Homo sapiens, UniProt P00533)", "T1 construct": "endogenous in cells; host or cells: A431 cells (lysate, captured with SUMO1 anti-EGFR antibody)", "T1 sequence (P00533 25-1210)": "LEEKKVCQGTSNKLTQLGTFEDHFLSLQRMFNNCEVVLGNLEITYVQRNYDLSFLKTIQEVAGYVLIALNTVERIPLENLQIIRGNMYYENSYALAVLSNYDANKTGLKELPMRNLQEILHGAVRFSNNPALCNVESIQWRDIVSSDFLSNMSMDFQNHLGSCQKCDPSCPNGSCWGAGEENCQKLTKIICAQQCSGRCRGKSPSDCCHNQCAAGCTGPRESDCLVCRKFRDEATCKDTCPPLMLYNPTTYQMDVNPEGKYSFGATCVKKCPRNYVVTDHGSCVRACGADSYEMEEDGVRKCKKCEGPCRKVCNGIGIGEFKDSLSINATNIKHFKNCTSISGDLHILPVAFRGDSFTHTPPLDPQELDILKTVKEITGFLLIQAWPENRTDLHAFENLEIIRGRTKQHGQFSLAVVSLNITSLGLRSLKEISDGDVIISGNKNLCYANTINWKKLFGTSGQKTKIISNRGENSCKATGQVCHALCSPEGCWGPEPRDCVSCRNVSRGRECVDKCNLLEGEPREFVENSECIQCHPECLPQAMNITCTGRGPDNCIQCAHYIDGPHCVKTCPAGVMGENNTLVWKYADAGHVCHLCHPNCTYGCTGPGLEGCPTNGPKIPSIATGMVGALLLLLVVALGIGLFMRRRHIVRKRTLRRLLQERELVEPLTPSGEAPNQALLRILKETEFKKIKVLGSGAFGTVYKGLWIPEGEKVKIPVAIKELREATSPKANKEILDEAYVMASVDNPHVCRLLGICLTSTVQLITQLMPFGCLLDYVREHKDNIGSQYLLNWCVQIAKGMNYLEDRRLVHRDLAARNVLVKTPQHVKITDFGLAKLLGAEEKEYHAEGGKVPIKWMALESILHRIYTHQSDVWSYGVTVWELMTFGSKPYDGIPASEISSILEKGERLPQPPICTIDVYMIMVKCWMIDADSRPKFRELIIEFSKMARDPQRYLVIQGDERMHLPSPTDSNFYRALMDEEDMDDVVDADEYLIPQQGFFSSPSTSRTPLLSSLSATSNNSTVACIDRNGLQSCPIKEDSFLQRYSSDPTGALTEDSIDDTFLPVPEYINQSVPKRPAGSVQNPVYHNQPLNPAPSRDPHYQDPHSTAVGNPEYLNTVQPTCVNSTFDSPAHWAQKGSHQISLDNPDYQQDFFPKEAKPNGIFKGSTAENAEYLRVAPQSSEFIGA", "assay": "Biochemical EGFR Assay", "set-up": "concentration or dose not given beside the values", "settings": "protocol P.167", "summary_of_the_method": "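Readout is ABTS absorbance at 410 nm after anti-phosphotyrosine and HRP-antibody detection of EGFR autophosphorylation. The kinase was immunocaptured from A431 lysate, exposed 30 min to test compound diluted 1:10 in TBS, then phosphorylated for 5 min with ATP/MnCl2 before an EDTA stop.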", "units": {"Biochem EGFR % Inhibition (P.167)": "%"}, "values": [
      {"compound": "Cc1c(Br)cc(Br)c2c1C(=Cc1cc(O)c(O)c(O)c1)C(=O)N2", "note": "[10739/H07]", "Biochem EGFR % Inhibition (P.167)": 10.9},
      {"compound": "COc1ccc(Oc2cccc(C=C3C(=O)Nc4c(Br)cc(Br)c(C)c43)c2)cc1", "note": "[10739/H08]", "Biochem EGFR % Inhibition (P.167)": "−28.5"},
      {"compound": "Cc1c(Br)cc(Br)c2c1C(=Cc1ccoc1)C(=O)N2", "note": "[10739/H10]", "Biochem EGFR % Inhibition (P.167)": "−26.6"}
    ]}
  ]
}
